{"source": "patent US7989640B2", "about": "“Sulfonylpyrrolidine modulators of androgen receptor function and method” (Bristol-Myers Squibb Company, priority 2004, dated 2011)", "key": {"[1]": {"target": "wild type AR (MDA 453)", "conditions": "read-out: Kd for [3H]-DHT; MDA 453 cells, Scatchard analysis", "method": "For the whole-cell binding assay, human LNCaP cells (T877A mutant AR) or MDA 453 (wild type AR) in 96-well microtiter plates containing RPMI 1640 or DMEM supplemented with 10% charcoal stripped CA-FBS (Cocaleco Biologicals) respectively, were incubated at 37° C. to remove any endogenous ligand that might be complexed with the receptor in the cells.\nFor the saturation analysis, the difference between the total binding and the non-specific binding, was defined as specific binding. […] See e.g. D. Rodbard, Mathematics and statistics of ligand assays: an illustrated guide: In: J. Langon and J. J. Clapp, eds., Ligand Assay, Masson Publishing U.S.A., Inc., New York, pp. 45-99, (1981), the disclosure of which is herein incorporated by reference.\n[formula] After correcting for non-specific binding, IC50 values were determined. […] C2C12 Mouse Myoblast Transactivation Assay"}, "[2]": {"target": "endogenous glucocorticoid receptor (A549 cells) (Homo sapiens, UniProt P04150)", "sequence (P04150 whole entry)": "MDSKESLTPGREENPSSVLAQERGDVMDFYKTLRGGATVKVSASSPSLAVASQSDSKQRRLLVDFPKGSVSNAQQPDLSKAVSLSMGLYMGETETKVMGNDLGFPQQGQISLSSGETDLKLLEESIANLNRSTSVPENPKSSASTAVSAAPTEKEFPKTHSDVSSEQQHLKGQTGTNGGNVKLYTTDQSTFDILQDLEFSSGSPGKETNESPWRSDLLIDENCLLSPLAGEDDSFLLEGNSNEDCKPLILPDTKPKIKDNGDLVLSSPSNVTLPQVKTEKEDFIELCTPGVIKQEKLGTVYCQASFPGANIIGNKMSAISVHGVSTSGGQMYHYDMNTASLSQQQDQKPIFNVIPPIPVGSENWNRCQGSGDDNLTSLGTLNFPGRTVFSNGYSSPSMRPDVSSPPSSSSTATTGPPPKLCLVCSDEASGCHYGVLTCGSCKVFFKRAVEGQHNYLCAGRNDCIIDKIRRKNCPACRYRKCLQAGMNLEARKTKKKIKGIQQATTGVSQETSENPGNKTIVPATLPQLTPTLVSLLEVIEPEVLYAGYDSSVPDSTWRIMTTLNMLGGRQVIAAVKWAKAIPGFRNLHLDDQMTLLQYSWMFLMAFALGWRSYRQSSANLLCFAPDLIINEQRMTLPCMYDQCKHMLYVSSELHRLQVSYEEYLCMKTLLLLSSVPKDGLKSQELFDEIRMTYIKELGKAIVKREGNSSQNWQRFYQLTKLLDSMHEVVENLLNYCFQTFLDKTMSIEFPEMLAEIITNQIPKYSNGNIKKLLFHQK", "conditions": "concentration ≦10 μM; 10 ng/mL PMA stimulation; typical value of positive control", "method": "The AP-1 assay is a cell-based luciferase reporter assay. A549 cells, which contain endogenous glucocorticoid receptor, were stably transfected with an AP-1 DNA binding site attached to the luciferase gene. Cells are then grown in RPMI+10% fetal calf serum (charcoal-treated)+Penicillin/Streptomycin with 0.5 mg/mL geneticin. Cells are plated the day before the assay at approximately 40000 cells/well. On assay day, the media is removed by aspiration and 20 μL assay buffer (RPMI without phenol red+10% FCS (charcoal-treated)+Pen/Strep) is added to each well. At this point either 20 μL assay buffer (control experiments), the compounds of the present invention (“test compounds”) (dissolved in DMSO and added at varying concentrations) or dexamethasome (100 nM in DMSO, positive control) are added to each well. The plates are then pre-incubated for 15 min at 37° C., followed by stimulation of the cells with 10 ng/mL PMA. The plates are then incubated for 7 h at 37° C. after which 40 μL luciferase substrate reagent is added to each well."}, "[3]": {"target": "T1, AR (Rattus norvegicus, UniProt P15207)", "T1 sequence (P15207 1-902)": "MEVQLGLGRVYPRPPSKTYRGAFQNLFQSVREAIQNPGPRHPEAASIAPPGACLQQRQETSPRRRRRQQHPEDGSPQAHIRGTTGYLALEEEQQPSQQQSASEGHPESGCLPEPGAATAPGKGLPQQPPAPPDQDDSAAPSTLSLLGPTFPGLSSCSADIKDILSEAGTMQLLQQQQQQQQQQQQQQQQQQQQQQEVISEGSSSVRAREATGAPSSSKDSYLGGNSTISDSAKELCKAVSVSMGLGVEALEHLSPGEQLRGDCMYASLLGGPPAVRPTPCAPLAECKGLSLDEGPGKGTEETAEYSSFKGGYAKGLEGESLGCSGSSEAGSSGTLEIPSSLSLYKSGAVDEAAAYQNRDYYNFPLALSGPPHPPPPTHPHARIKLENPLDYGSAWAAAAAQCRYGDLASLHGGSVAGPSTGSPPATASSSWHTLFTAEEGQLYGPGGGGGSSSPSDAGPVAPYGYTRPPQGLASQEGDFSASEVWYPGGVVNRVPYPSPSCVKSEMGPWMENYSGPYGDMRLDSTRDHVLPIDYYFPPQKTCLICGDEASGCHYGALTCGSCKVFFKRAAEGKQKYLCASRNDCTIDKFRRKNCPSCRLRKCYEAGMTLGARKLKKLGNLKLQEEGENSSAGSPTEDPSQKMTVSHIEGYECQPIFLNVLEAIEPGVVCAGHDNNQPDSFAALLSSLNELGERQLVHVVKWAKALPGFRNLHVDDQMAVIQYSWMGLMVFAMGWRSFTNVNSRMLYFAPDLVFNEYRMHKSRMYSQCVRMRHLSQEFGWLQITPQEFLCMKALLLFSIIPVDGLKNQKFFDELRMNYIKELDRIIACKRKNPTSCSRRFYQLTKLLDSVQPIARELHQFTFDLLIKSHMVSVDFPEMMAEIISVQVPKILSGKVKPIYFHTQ", "description": "The activity of compounds of the present invention as AR agonists was investigated in an immature male rat model, a recognized test of anabolic effects in muscle and sustaining effects in sex organs for a given compound, as described in L. G. Hershberger et al., Proc. Soc. […] Biol. Med., 83, 175 (1953); B. L. Beyler et al, “Methods for evaluating anabolic and catabolic agents in laboratory animals”, J. Amer. Med. Women's Ass., 23, 708 (1968); H. Fukuda et al., “Investigations of the levator ani muscle as an anabolic steroid assay”, Nago Dai. Yak. Ken. Nem. 14, 84 (1966) the disclosures of which are herein incorporated by reference.\nThe basis of this assay lies in the well-defined action of androgenic agents on the maintenance and growth of muscle tissues and sexual accessory organs in animals and man. […] J. Anat. […] Ital. Biol. Sper. […] II. […] Ital. Biol. Sper. 42, 1600 (1966); A. Boris et al., Steroids 15, 61 (1970). As described above, the effects of androgens on maintenance of male sexual accessory organs, such as the prostate and seminal vesicles, is well described. Castration results in rapid involution and atrophy of the prostate and seminal vesicles. This effect can be reversed by exogenous addition of androgens. […]"}}, "data": [{"molecule": "tritiated dihydrotestosterone [[^3H]-DHT]", "values": [{"measurement": "Kd", "setting": "[1]", "value": 0.7, "unit": "nM"}]}, {"molecule": "C[C@@H]1C[C@H]2[C@@H]3CCC4=CC(=O)C=C[C@]4(C)[C@@]3(F)[C@@H](O)C[C@]2(C)[C@@]1(O)C(=O)CO", "note": "[dexamethasone]", "values": [{"measurement": "suppression of activity (% inhibition of the reporter system vs buffer control)", "setting": "[2]", "value": 65, "unit": "%"}]}, {"molecule": "CCC(=O)O[C@H]1CC[C@H]2[C@@H]3CCC4=CC(=O)CC[C@]4(C)[C@H]3CC[C@]12C", "note": "[TP, testosterone propionate]", "values": [{"measurement": "potency relative to free T", "setting": "[3]; TP versus free T", "value": "10-30 fold"}, {"measurement": "EC50 (increase in organ weight)", "setting": "[3]; immature castrated rats, dosing for 3 days", "value": "~0.03", "unit": "mg"}]}]}
